≈ marks a conversion by molar mass, not a printed value.
What was measured:
[1] = test system: Streptococcus mutans ATCC 25175; experiment: Antimicrobial microtiter-plate MIC assay; type: cell-based; details: for MIC Streptococcus mutant: 24 h, 37 °C; for MIC: Streptococcus mutans, ATCC25175, 24 h, read-out: MIC Streptococcus mutant
Protocol: (§1) The antimicrobial activity of the newly synthesized compounds (2–9) was evaluated against three model pathogenic microorganisms as follows: Streptococcus mutans ATCC 25175 (Gram-positive bacterium); Pseudomonas aeruginosa ATCC 27853 (Gram-negative bacterium); and Candida albicans ATCC 10231 (fungi-like unicellular organism). After cultivating the three tested pathogens overnight in LB broth, 100 µL of each tested organism (10^6 CFU/mL) was added separately to 100 µL of the serially diluted test compounds (5–80 µg) in a 96-well tissue culture plate and incubated at 37 °C for 24 h. Eventually, microbial growth was measured at 600 nm, and the results are presented in the form of MIC (Table 4). Two antibacterial reference drugs, ampicillin and ciprofloxacin, and one antifungal drug, clotrimazole, were incorporated into the experiments.

[2] = test system: Pseudomonas aeruginosa ATCC 27853; experiment: Antimicrobial microtiter-plate MIC assay; type: cell-based; details: 24 h, 37 °C; for MIC: Pseudomonas aeruginosa, ATCC27853
Protocol: as §1

[3] = test system: Candida albicans ATCC 10231; experiment: Antimicrobial microtiter-plate MIC assay; type: cell-based; details: for MIC: ATCC10231; for MIC / MIC Candida albicans: 24 h, 37 °C
Protocol: as §1

HepG-2 cells = experiment: MTT antitumor assay, hepatoma cells; type: cell-based, human; details: for IC50 HepG-2 / IC50: MTT, 48 h; for SI HepG-2: ratio of IC50 of normal cells (HFB-4) versus IC50 of tumor cells; for IC50: Homo sapiens, HepG2, 48 h
Protocol: (§2) The human melanocytes (HFB-4) cells, hepatoma (HepG-2) cells, and colon carcinoma (Caco-2) cells were obtained from American Type Culture Collection (ATCC, USA). The cytotoxicity of the newly synthesized compounds (at various concentrations) was determined using the 3-[4, 5-dimethylthiazol]-2, 5-diphenyltetrazolium bromide method (MTT assay)[59] against HFB-4 cells (normal human melanocytes), HepG-2 cells (hepatoma), and Caco-2 cells (colon carcinoma). Normal and cancer cells (1.0 × 10^4) were cultured in sterile 96-well microplates, and incubated for 24 h in DMEM (Lonza, USA) supplemented with 10% fetal bovine serum (Gibco, USA) for HFB-4 and Caco-2 cells or in an RPMI-1640 medium (Lonza, USA) supplemented with 10% FBS for HepG-2 cells. After 24 h of incubation, different doses of the tested synthesized compounds ([…]) were added in triplicate to all cells and incubated for another 48 h in 5% CO2. After washing the cells 3 times with fresh media, to remove dead cells and debris, a solution of MTT (Sigma -Aldrich, 0.5 mg/mL) was added to each well and further incubated for 2–5 h at 37 °C. Afterward, the MTT solution was decanted and 200 µL of DMSO was added. The optical density was measured at 570 nm using a microplate reader (BMG LabTech, Germany), where the cells’ relative viability (%) was estimated using the following equation: viability of cells (%) = [A1 − A0/AU − A0] × 100, where A1 is the absorbance of the test compound, A0 is the absorbance of the blank, and AU is the absorbance of untreated cells (control).
(§3) The antitumor activity of the synthesized compound was determined by calculating the IC50 value (half maximal inhibitory concentration) using Graph Pad Prism 6.0 software. The value of IC50 indicates the derivative concentration that causes 50% cell death, whereas the value of the selectivity index (SI), indicating the ratio of the IC50 value of normal cells versus the IC50 value of tumor cells, was also included as reported by[60],[61].

HFB-4 cells = experiment: MTT cytotoxicity assay, normal human melanocytes; type: cell-based; details: 48 h; for IC50: Melanocyte
Protocol: as §2, §3

Caco-2 cells = experiment: MTT antitumor assay, colon carcinoma cells; type: cell-based; details: for IC50 Caco-2 / IC50: MTT, 48 h; for SI Caco-2: ratio of IC50 of normal cells (HFB-4) versus IC50 of tumor cells; for IC50: Homo sapiens, Caco-2, 48 h
Protocol: as §2, §3

Pseudomonas aeruginosa = experiment: Microbial-biofilm inhibition, tissue-culture plate technique (TCP); type: cell-based; details: 25 µg/mL, 24 h
Protocol: (§4) The activity of the newly synthesized compounds against microbial biofilm formation was estimated through the tissue-culture plate technique (TCP) as follows: the three above-mentioned pathogens, Streptococcus mutans, Pseudomonas aeruginosa, and Candida albicans were cultivated overnight in LB broth at 37 °C. Afterward, 200 µL of each diluted organism (10^6 CFU/mL) was inoculated separately (in triplicate) into 96-well tissue culture plates and incubated overnight at 37 °C. The free planktonic cells were removed, after the incubation period, by flipping the plate and washing each well three times with phosphate-buffered-saline (PBS), pH 7.1. To each well, 175 µL of fresh LB broth was added along with 25 µL of the tested compound (25 µg/mL final concentrations). The plates were reincubated at 37 °C for another 24 h, washed with PBS buffer pH 7.1 three times, and dried for 5 min at 50 °C. The formed biofilm was stained with crystal violet solution (0.1% w/v) for 5 min. The excess stain was decanted, and the stained biofilm was solubilized with 200 µL of glacial acetic acid (30% v/v), where the developed blue color was measured at 590 nm. The results are expressed as relative inhibition (%) compared to untreated groups (control). Controls were prepared by culturing the three pathogens on LB medium without any tested compounds.

Candida albicans = experiment: as above; type: cell-based; details: 24 h, relative to untreated; for inhibition at 25 µg/mL: Candida albicans
Protocol: as §4

Streptococcus mutans = experiment: as above; type: cell-based; details: 25 µg/mL, 24 h
Protocol: as §4

β-catenin gene = experiment: qRT-PCR gene expression in HepG-2 and Caco-2 cells; type: cell-based, human; details: IC50 concentrations, 2 days
Protocol: The effects of the potent antitumor derivatives (4, 6, and 8) on the expression level of some tumor regulating genes were elucidated through quantitative real-time PCR (qRT- PCR) and compared to 5-fluorouracil (5-FU) as a reference antitumor drug. Five genes were assessed, including the tumor oncogene (Bcl-2), tumor suppressor gene (p53), matrix metalloproteinase gene (MMP-9), vascular endothelial growth factor gene (VEGF), and beta-catenin protein gene (β-catenin), in HepG-2 and Caco-2 cells, before and after treatment for 2 days with IC50 concentrations for compounds 4, 6, and 8. Following the extraction of total RNA from the tested cells, using the Gene JET RNA Purification Kit (Thermo Scientific, USA), cDNA synthesis was performed according to the cDNA Synthesis Kit protocol (Thermo Scientific, USA). qRT PCR was performed using the SYBR green kit and specific primers (Forward/Reverse) as follows: 5′-[…]-3'/5'-TCG GTCTCCTAAAAGCAGGC-3′ for the Bcl-2 gene, 5′-TAACAGTTCCTGCATG GG CG GC-3′/5′-[…]-3′ for p53, 5'-CTGCGTATTTCCATT CATC-3'/5'-CCTTGGGTCAGGTTTAGAG-3' for the MMP-9 gene, 5'-GGCTTTACT GCTGTACCTCC-3'/5'-CAAATGCTTTCTCCGCTCT-3' for the VEGF gene, and 5'-CATATGCGGCTGCTG TTCTA-3'/5'-CCGAAAG CCGTTTCTTGTAG-3' for the β-catenin gene. The upregulation and/or downregulation of the expression of the tested genes in Caco-2 and HepG-2 cells was determined by using the equation 2^−ΔΔCT[60].

Row | Compound | MIC Streptococcus mutant [1] [µg/mL] | MIC [1] [µg/mL] | MIC Pseudomonas aeruginosa [2] [µg/mL] | MIC [2] [µg/mL] | MIC ([3]; Candida albicans) [µg/mL] | SI HepG-2 (HepG-2 cells) | SI Caco-2 (Caco-2 cells) | biofilm inhibition activity Pseudomonas aeruginosa (in words) (Pseudomonas aeruginosa) | IC50 (HepG-2 cells) [µg/mL] | IC50 (HFB-4 cells) [µg/mL] | IC50 (Caco-2 cells) [µg/mL] | inhibition at 25 µg/mL (Candida albicans) [%] | also measured
1 | CC1(C)S[C@@H]2[C@H](NC(=O)[C@H](N)c3ccccc3)C(=O)N2[C@H]1C(=O)O [Ampicillin, ampicillin, reference compound] | 13.5 ± 0.234 (≈ 38.6 µM) | 13.5 (≈ 38.6 µM) | – | – | – | – | – | – | – | – | – | – | –
2 | O=C(O)c1cn(C2CC2)c2cc(N3CCNCC3)c(F)cc2c1=O [Ciprofloxacin, ciprofloxacin, reference compound] | – | – | 18.7 ± 0.475 (≈ 56.4 µM) | 18.7 (≈ 56.4 µM) | – | – | – | – | – | – | – | – | –
3 | Clc1ccccc1C(c1ccccc1)(c1ccccc1)n1ccnc1 [Clotrimazole, clotrimazole, reference compound] | – | – | – | – | 14.5 ± 1.25 (≈ 42 µM) | – | – | – | – | – | – | – | –
4 | NS(=O)(=O)c1ccc(Nc2csc(N3NC4=C(CCCC4)C3c3ccccc3)n2)cc1 (stereo not drawn) [Compound 2] | 49.71 ± 0.5849 (≈ 110 µM) | – | 40.13 ± 2.109 (≈ 88.5 µM) | – | – | 17.39 ± 0.24 | 18.28 ± 0.25 | high biofilm inhibition activity | – | – | – | – | MIC Candida albicans [3]: 52.77 ± 0.7862 µg/mL (≈ 116 µM); IC50 HepG-2 (HepG-2 cells): 6.37 ± 0.36 µg/mL (≈ 14 µM); IC50 HFB-4 (HFB-4 cells): 110.8 ± 1.54 µg/mL (≈ 244 µM); IC50 Caco-2 (Caco-2 cells): 6.06 ± 1.26 µg/mL (≈ 13.4 µM); biofilm inhibition Pseudomonas aeruginosa (Pseudomonas aeruginosa; relative to untreated): approximately 58.5%
5 | N#CC1=C(N)N(c2ccc(S(N)(=O)=O)cc2)c2nc(N3NC4=C(CCCC4)C3c3ccccc3)sc2C1c1ccccc1 (stereo not drawn) [Compound 3, 4-(5-amino-6-cyano-7-phenyl-2-(3-phenyl-1,3,4,5,6,7-hexahydro-2H-indazol-2-yl)thiazolo[4,5-b]pyridin-4(7H)-yl) benzenesulfonamide] | 11.12 ± 0.4232 (≈ 18.3 µM) | – | 18.29 ± 2.114 (≈ 30.1 µM) | – | – | 7.20 ± 0.20 | 7.18 ± 0.20 | high biofilm inhibition activity | – | – | – | – | MIC Candida albicans [3]: 40.74 ± 0.5511 µg/mL (≈ 67 µM); MIC Candida albicans ([3]; listed as compound 3): 40.74 µg/mL (≈ 67 µM); antifungal activity as share of clotrimazole activity ([3]; Candida albicans): 36%; MIC Streptococcus mutant ([1]; listed as derivative 3): 11.2 µg/mL (≈ 18.4 µM); MIC Pseudomonas aeruginosa ([2]; listed as derivative 3): 18.29 µg/mL (≈ 30.1 µM); IC50 HepG-2 (HepG-2 cells): 7.72 ± 0.38 µg/mL (≈ 12.7 µM); IC50 HFB-4 (HFB-4 cells): 55.59 ± 1.58 µg/mL (≈ 91.5 µM); IC50 Caco-2 (Caco-2 cells): 7.74 ± 0.81 µg/mL (≈ 12.7 µM); biofilm inhibition Candida albicans (Candida albicans; 25 µg/mL): 69%; antibiofilm formation activity Streptococcus mutans (in words) (Streptococcus mutans): had antibiofilm formation activities; biofilm inhibition Streptococcus mutans (Streptococcus mutans; relative to untreated): around 64%
6 | N#Cc1c(N)sc2sc(N3NC4=C(CCCC4)C3c3ccccc3)nc12 (stereo not drawn) [Compound 5, 5-amino-2-(3-phenyl-1,3,4,5,6,7-hexahydro-2H-indazol-2-yl)thieno[3,2-d]thiazole-6-carbonitrile] | – | 43.52 ± 0.359 (≈ 115 µM) | – | 56.5 ± 2.19 (≈ 149 µM) | 59 ± 1.28 (≈ 156 µM) | 12.90 ± 0.32 | 12.87 ± 0.32 | high biofilm inhibition activity | 7.57 ± 0.36 (≈ 19.9 µM) | 97.7 ± 2.41 (≈ 257 µM) | 7.59 ± 0.24 (≈ 20 µM) | 68 | –
7 | O=c1[nH]cc(F)c(=O)[nH]1 [Compound 5-FU, 5-fluorouracil, reference compound] | – | – | – | – | – | – | – | – | – | – | – | – | expression of the β-catenin gene (β-catenin gene): stimulated its expression
8 | N=C1CC(=O)Oc2nc(N3NC4=C(CCCC4)C3c3ccccc3)sc21 (stereo not drawn) [Compound 7, 7-imino-2-(3-phenyl-1,3,4,5,6,7-hexahydro-2H-indazol-2-yl)-6,7-dihydro-5H-pyrano [2,3-d]thiazol-5-one] | – | 22.4 ± 0.317 (≈ 61.2 µM) | – | 43.9 ± 2.04 (≈ 120 µM) | 58.2 ± 1.21 (≈ 159 µM) | 10.99 ± 0.65 | 11.39 ± 0.67 | – | 9.53 ± 0.32 (≈ 26 µM) | 105 ± 6.2 (≈ 286 µM) | 9.2 ± 0.27 (≈ 25.1 µM) | 66 | –
9 | CCOC(=O)C1=C2N=C(N3NC4=C(CCCC4)C3c3ccccc3)SC2C(=S)S1 (stereo not drawn) [Compound 9, ethyl 2-(3-phenyl-1,3,4,5,6,7-hexahydro-2H-indazol-2-yl)-6-thioxo-6,6a-dihydrothieno [3,4-d]thiazole-4-carboxylate] | – | 48.77 ± 0.246 (≈ 110 µM) | – | 61.5 ± 1.83 (≈ 139 µM) | 46.6 ± 1.2 (≈ 105 µM) | 12.55 ± 0.06 | 11.04 ± 0.05 | – | 5.23 ± 0.25 (≈ 11.8 µM) | 65.65 ± 0.29 (≈ 148 µM) | 5.95 ± 0.1 (≈ 13.4 µM) | ~79 | –
